Molecules are shown by their SMILES.

A short description of data set [1]: Inhibition of P-gp in mouse EMT6/AR1.0 cells assessed reduction in tritiated daunomycin efflux incubated for 2 hrs by radioactivity based assay. It counts as cell-based. The settings on record: EMT6/AR1, 2 h.
Data set [2] relates to NCI/ADR-RES. Kind of data set: Synergistic cytotoxicity against human MCF7/ADR cells assessed as combination index at 0.5 uM after 72 hrs in presence of 0.25 uM doxorubicin by MTT assay. It counts as functional. For orientation: Tetrazolium assays rely on reduction of a dye to a coloured formazan, in cell work by metabolically active cells.
The target of data set [3] is T1, P-gp (ABCB1) (Homo sapiens, UniProt P08183). Kind of data set: Inhibition of P-gp activity in human MCF7/ADR cells at 250 nM after 72 hrs by RT-PCR analysis relative to control. The format is cell-based, NCI/ADR-RES. The settings on record: MCF7/ADR cells.
The subject of data set [4] is NCI/ADR-RES. Kind of data set: Synergistic cytotoxicity against human MCF7/ADR cells assessed as combination index at 0.5 uM after 72 hrs in presence of 0.5 uM doxorubicin by MTT assay. The format is functional.
Data set [5] deals with NCI/ADR-RES. Kind of data set: Synergistic cytotoxicity against human MCF7/ADR cells assessed as combination index at 1 uM after 72 hrs in presence of 0.25 uM doxorubicin by MTT assay. It counts as functional.
For data set [6], the system named is NCI/ADR-RES. Kind of data set: Synergistic cytotoxicity against human MCF7/ADR cells assessed as combination index at 0.25 uM after 72 hrs in presence of 1 uM doxorubicin by MTT assay. It counts as functional.
The test system of data set [7] is NCI/ADR-RES. Kind of data set: Synergistic cytotoxicity against human MCF7/ADR cells assessed as combination index at 1 uM after 72 hrs in presence of 0.5 uM doxorubicin by MTT assay. It counts as functional.
For data set [8], the target named is ATP-dependent translocase ABCB1 (Homo sapiens, UniProt P08183). Kind of data set: Inhibition of P-gp activity in human MCF7/ADR cells after 72 hrs by RT-PCR analysis. The format is cell-based. The settings on record: nci/adr-res, at 125 to 1000 nM, dose 125-1000 nM.
The test system of data set [9] is NCI/ADR-RES. Kind of data set: Cytotoxicity against human MCF7/ADR cells assessed as reduction in cell viability incubated for 72 hrs in presence of doxorubicin by MTT assay. It counts as functional, cell-based.
The next data set has as its system MRC5. Kind of data set: Cytotoxicity against human MRC5 cells assessed as reduction in cell viability incubated for 72 hrs by MTT assay. The settings on record: MRC5, 72 h.
The subject of a further data set is A2780. Kind of data set: Cytotoxicity against human A2780 cells assessed as reduction in cell viability incubated for 72 hrs by MTT assay. The settings on record: A2780, 72 h.
Data set [10] concerns the target T1, P-gp (ABCB1). Kind of data set: Inhibition of P-gp activity in human MCF7/ADR cells at 1000 nM after 72 hrs by RT-PCR analysis relative to control. The following applies: MCF7/ADR cells. The format is cell-based, NCI/ADR-RES.
For a further data set, the system named is MCF7. Kind of data set: Cytotoxicity against human MCF7 cells assessed as reduction in cell viability incubated for 72 hrs by MTT assay. It counts as functional, cell-based. The following applies: MCF7, 72 h.
Data set [11] relates to NCI/ADR-RES. Kind of data set: Synergistic cytotoxicity against human MCF7/ADR cells assessed as combination index at 1 uM after 72 hrs in presence of 1 uM doxorubicin by MTT assay. It counts as functional.
Data set [12] can be described thus: Selectivity index, ratio of IC50 for human MRC5 cells to IC50 for human A2780 cells. The format is toxicity. The following applies: MRC5 cells versus A2780 cells, read-out: Ratio IC50.
Data set [13] is described as follows: Selectivity index, ratio of IC50 for human MRC5 cells to IC50 for human MCF7 cells. The format is toxicity. The following applies: MRC5 cells versus MCF7 cells, read-out: Ratio IC50.
Data set [14] has as its target T1, P-gp (ABCB1). Kind of data set: Inhibition of P-gp activity in human MCF7/ADR cells at 500 nM after 72 hrs by RT-PCR analysis relative to control. The format is cell-based, NCI/ADR-RES. The following applies: MCF7/ADR cells.
The target of data set [15] is T1, P-gp (ABCB1). Kind of data set: Inhibition of P-gp activity in human MCF7/ADR cells at 125 nM after 72 hrs by RT-PCR analysis relative to control. It counts as cell-based, NCI/ADR-RES.
In data set [16] the test system is NCI/ADR-RES. Kind of data set: Synergistic cytotoxicity against human MCF7/ADR cells assessed as combination index at 0.25 uM after 72 hrs in presence of 0.5 uM doxorubicin by MTT assay. The format is functional.
Data set [17] relates to NCI/ADR-RES. Kind of data set: Synergistic cytotoxicity against human MCF7/ADR cells assessed as combination index at 0.25 uM after 72 hrs in presence of 0.25 uM doxorubicin by MTT assay. The format is functional.
Data set [18] relates to NCI/ADR-RES. Kind of data set: Cytotoxicity against human MCF7/ADR cells assessed as reduction in cell viability incubated for 72 hrs by MTT assay.
Data set [19] is described as follows: Selectivity index, ratio of IC50 for human MRC5 cells to IC50 for human HT29 cells. It counts as toxicity. The following applies: MRC5 cells versus HT29 cells, read-out: Ratio IC50.
The nature of data set [20]: Reversal of multidrug resistant activity in human MCF7/ADR cells assessed as reversal fold after 72 hrs by MTT assay. It counts as functional, NCI/ADR-RES.
Data set [21] has as its system NCI/ADR-RES. Kind of data set: Synergistic cytotoxicity against human MCF7/ADR cells assessed as combination index at 0.5 uM after 72 hrs in presence of 1 uM doxorubicin by MTT assay. The format is functional.
For another data set, the system named is HT-29. Kind of data set: Cytotoxicity against human HT29 cells assessed as reduction in cell viability incubated for 72 hrs by MTT assay. The following applies: HT-29, 72 h.

T1 sequence (P08183 whole entry): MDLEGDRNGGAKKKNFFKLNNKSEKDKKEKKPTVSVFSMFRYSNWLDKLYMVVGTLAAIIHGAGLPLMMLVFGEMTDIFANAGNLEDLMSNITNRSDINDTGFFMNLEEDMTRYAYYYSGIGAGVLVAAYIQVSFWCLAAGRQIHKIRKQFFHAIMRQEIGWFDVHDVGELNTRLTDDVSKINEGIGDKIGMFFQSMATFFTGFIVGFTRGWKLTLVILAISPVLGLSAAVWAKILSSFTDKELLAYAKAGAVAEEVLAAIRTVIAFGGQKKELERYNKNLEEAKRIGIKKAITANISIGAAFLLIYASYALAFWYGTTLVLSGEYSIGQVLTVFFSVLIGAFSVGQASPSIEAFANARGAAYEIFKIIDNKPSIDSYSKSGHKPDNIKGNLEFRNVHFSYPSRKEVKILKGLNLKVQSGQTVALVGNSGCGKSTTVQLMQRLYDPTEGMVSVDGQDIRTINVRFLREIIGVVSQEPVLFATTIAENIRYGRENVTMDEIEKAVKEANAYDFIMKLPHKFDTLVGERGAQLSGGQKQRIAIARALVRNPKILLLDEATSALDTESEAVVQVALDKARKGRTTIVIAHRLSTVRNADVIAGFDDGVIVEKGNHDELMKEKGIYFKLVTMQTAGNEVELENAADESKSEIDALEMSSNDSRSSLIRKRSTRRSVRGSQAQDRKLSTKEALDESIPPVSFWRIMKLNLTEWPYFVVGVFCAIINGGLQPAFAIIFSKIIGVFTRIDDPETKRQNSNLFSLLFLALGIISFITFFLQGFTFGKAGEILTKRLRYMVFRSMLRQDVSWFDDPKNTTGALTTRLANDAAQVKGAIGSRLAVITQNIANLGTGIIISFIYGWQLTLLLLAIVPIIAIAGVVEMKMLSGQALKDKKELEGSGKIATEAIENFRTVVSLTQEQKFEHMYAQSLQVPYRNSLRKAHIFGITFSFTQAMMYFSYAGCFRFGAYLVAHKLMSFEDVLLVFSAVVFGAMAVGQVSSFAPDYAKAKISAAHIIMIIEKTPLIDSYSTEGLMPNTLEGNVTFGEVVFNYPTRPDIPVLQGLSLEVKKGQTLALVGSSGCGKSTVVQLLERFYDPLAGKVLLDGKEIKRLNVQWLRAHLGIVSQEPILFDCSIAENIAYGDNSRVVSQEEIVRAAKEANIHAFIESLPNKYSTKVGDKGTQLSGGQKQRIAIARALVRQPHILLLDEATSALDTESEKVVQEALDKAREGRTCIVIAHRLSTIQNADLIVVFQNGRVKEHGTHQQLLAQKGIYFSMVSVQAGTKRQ
Sequence of ATP-dependent translocase ABCB1 (P08183 whole entry): as above

As a reminder, the IC50 is the concentration needed to halve the response being measured. As to `N#Cc1c2n(c3c(SCc4ccc(Cl)cc4)ncnc13)CCCCC2`, the IC50 in [1] is above 50 µM.
Broadly, the inhibition is the drop in the measured response relative to a control, in per cent. A lower inhibition goes with a weak effect. For the molecule `N#Cc1c2n(c3c(=O)n(-c4ccc(Br)cc4)cnc13)CCCC2`, the CI with NCI/ADR-RES [2] is given as above 100; in the data set on NCI/ADR-RES [4], 1.141; with NCI/ADR-RES [5], above 100; in the data set on NCI/ADR-RES [6], 0.2; in the data set with NCI/ADR-RES [7] it was 1.53; in the data set with NCI/ADR-RES [11] it was 0.1. The CI with NCI/ADR-RES [16] was above 100; with NCI/ADR-RES [17], above 100; in the data set with NCI/ADR-RES [21] it was 0.91. The inhibition at 72 h, 0.25 µM at P-gp (ABCB1) [3] is 63%. Moreover, the “inhibition (INH)” value in data set [8] is “Dose-Dependent Effect”. Also, the IC50 with NCI/ADR-RES [9] worked out at 3.07 µM; with MRC5, 15.8 µM; with A2780, 0.02 µM; in the data set on MCF7 it was 0.27 µM; in the data set on NCI/ADR-RES [18], 20.2 µM; in the data set with HT-29 it was 14.2 µM. The molecule further registered an inhibition at 72 h, 1 µM against P-gp (ABCB1) [10] of 90%. The figures for the selectivity ratio in data set [12], in data set [13] and in data set [19] were 792, 58.6 and 1.12, respectively. Moreover, on P-gp (ABCB1) [14], the inhibition at 72 h, 0.5 µM worked out at 87%. On P-gp (ABCB1) [15], the inhibition at 72 h, 0.125 µM was found to be 5%. The “fold change (FC)” value in [20] came to 5.93.

Values taken from ChEMBL document CHEMBL4819064, “Discovery of new pyrimidopyrrolizine/indolizine-based derivatives as P-glycoprotein inhibitors: Design, synthesis, cytotoxicity, and MDR reversal activities” (Eur J Med Chem, 2021).
